The values below come from patent publication US20040132639A1, “Combined use of enzyme inhibitors and pharmaceutical preparations thereof for the treatment and a prophylaxis of arteriosclerosis, for the treatment and prevention of allergic reactions of type I according to the gell and coombs classification and for the treatment and prevention of dermatological …” (priority 2001, published 2004).

Holding throughout (type): cell-based
Experiment [1] relates to activated human peripheric T cells. As to the kind of experiment: Proliferation of activated human peripheric T cells (WST-1 Cell-Proliferation Assay). As to conditions: single and simultaneous administration of I49 and APN inhibitors actinonine and probestine; activation by phytohemagglutinine and phorbol-12-myristate-13-acetate; 72 h; Example 9, FIG. 9. The protocol:
FIG. 9: The T cells with the exception of the untreated control, were activated by an addition of phytohemagglutinine and phorbol-12-myristate-13-acetate to the culture medium and were incubated for a time of 72 hours in the presence of the above inhibitors singly or in combination. Subsequently, there was carried out a determination of the number of metabolically active cells by using the commercially available WST-1 Cell-Proliferation Assay (Takara Inc.) in accordance with the proposals of the manufacturer.
For orientation: Tetrazolium assays rely on reduction of a dye to a coloured formazan, in cell work by metabolically active cells.

Experiment [2] relates to KARPAS-299 cells. As to the kind of experiment: Proliferation of human T cell line KARPAS-299 (WST-1 Cell-Proliferation Assay). As to conditions: single and simultaneous administration of I49 and APN inhibitors actinonine and probestine; 72 h; Example 8, FIG. 8. The protocol:
FIG. 8: The KARPAS-299-cells were incubated for a time period of 72 hours without (control) and with the above-indicated inhibitors singly or in combination. Subsequently, there was carried out a determination of the number of metabolically active cells by using the commercially available WST-1 Cell-Proliferation Assay (Takara Inc.) in accordance with the proposals of the manufacturer.

In experiment [3] the test system is human peripheric mononuclear cells (MNC). As to the kind of experiment: DNA synthesis of human peripheric mononuclear cells (3[H]-thymidine incorporation). As to conditions: 72 h incubation. Here is the method:
The MNC were incubated for 72 h in the presence of said inhibitors, and the DNA synthesis was determined subsequently by a measurement of the ^3[H]-thymidine incorporation, as described by Reinhold et al. (Reinhold D. et al.: Inhibitors of dipeptidyl peptidase IV induce secretion of transforming growth factor β1 in PWM-stimulated PBMNC and T cells; Immunology 1997, 91: 354-360).
FIG. 2: Synergistic and dose-dependent effect of inhibitors of DP IV (I49) and of APN (actinonine) on the DNA synthesis of human mononuclear cells (MNC). Human MNC were incubated for three days with the above-indicated concentrations of the inhibitors. Subsequently, ^3[H]-methyl thymidine was added to the culture medium, and after further 6 hours, the ^3[H]-thymidine amount incorporated into the DNA was measured.
FIG. 4: Enhanced and dose-dependent effect of inhibitors of DP IV (I49) and of prolyl oligopeptidase (Boc-Ala-Thia) on the DNA synthesis of human mononuclear cells (MNC). Human MNC were incubated for three days with the above-indicated concentrations of the inhibitors. Subsequently, ^3[H]-methyl thymidine was added to the culture medium, and after further 6 hours, the ^3[H]-thymidine amount incorporated into the DNA was measured.
FIG. 6: Synergistic and dose-dependent effect of inhibitors of DP IV (I49) and of angiotensin-converting enzyme (captopril) on the DNA synthesis of human mononuclear cells (MNC). Human MNC were incubated for three days with the above-indicated concentrations of the inhibitors. Subsequently, ^3[H]-methyl thymidine was added to the culture medium, and after further 6 hours, the ^3[H]-thymidine amount incorporated into the DNA was measured.
(In general: Incorporation of labelled thymidine or its analogues reports DNA synthesis.)

Experiment [4] concerns human peripheric T lymphocytes. Briefly: DNA synthesis of human T lymphocytes (3[H]-thymidine incorporation). As to conditions: 72 h incubation. Here is the method: The T cells were incubated for 72 h in the presence of said inhibitors, and the DNA synthesis was determined subsequently by a measurement of the ^3[H]-thymidine incorporation, as described by Reinhold et al. (Reinhold D. et al.: Inhibitors of dipeptidyl peptidase IV induce secretion of transforming growth factor β1 in PWM-stimulated PBMNC and T cells; Immunology 1997, 91: 354-360).
FIG. 1: Synergistic and dose-dependent effect of inhibitors of DP IV (I49) and of aminopeptidase N (actinonine) on the DNA synthesis of human T lymphocytes. Human peripheric T cells were incubated for three days with the above-indicated concentrations of the inhibitors. Subsequently, ^3[H]-methyl thymidine was added to the culture medium, and after further 6 hours, the ^3[H]-thymidine amount incorporated into the DNA was measured.
FIG. 3: Synergistic and dose-dependent effect of inhibitors of DP IV (I49) and of prolyl oligopeptidase (Boc-Ala-Thia) on the DNA synthesis of human peripheric T lymphocytes. Human T cells were incubated for three days with the above-indicated concentrations of the inhibitors. Subsequently, ^3[H]-methyl thymidine was added to the culture medium, and after further 6 hours, the ^3[H]-thymidine amount incorporated into the DNA was measured.
FIG. 5: Synergistic and dose-dependent effect of inhibitors of DP IV (I49) and of angiotensin-converting enzyme (captopril) on the DNA synthesis of human peripheric T lymphocytes.
Human T cells were incubated for three days with the above-indicated concentrations of the inhibitors. Subsequently, ^3[H]-methyl thymidine was added to the culture medium, and after further 6 hours, the ^3[H]-thymidine amount incorporated into the DNA was measured.

Experiment [5] concerns human HaCaT keratinocytes. As to the kind of experiment: DNA synthesis of human HaCaT keratinocytes (3[H]-thymidine incorporation). As to conditions: simultaneous administration of DP IV inhibitor I49 and APN inhibitor actinonine; 48 h; Example 13, FIG. 14. Here is the method:
HaCaT cells were incubated for 48 hours in presence of the above-mentioned inhibitors, and the DNA synthesis was subsequently determined by a measurement of ^3[H]-thymidine-incorporation, as described by Reinhold et al. (Reinhold D et al.: Inhibitors of dipeptidyl peptidase IV induce secretion of transforming growth factor β1 in PWM-stimulated PBMNC and T cells. Immunology 1997; 91; 354-360).
FIG. 14: Synergistic and dose-dependant effect of inhibitors of DP IV (I49) and of aminopeptidase N (actinonine) on the DNA synthesis of human HaCaT keratinocytes. The cells were incubated for 48 hours with the above-indicated concentrations of inhibitors. Subsequently, ^3[H]-methyl thymidine was added to the culture medium, and after further 6 hours, the amount of ^3[H]-thymidine incorporated into the DNA was measured.

Experiment [6] concerns PHA-activated human mononuclear cells (MNC). As to the kind of experiment: Proliferation of PHA-activated human MNC (WST-1 Cell-Proliferation Assay). As to conditions: 72 h. Here is the method:
FIG. 7: The MNC were incubated for the time of 72 hours without (control), with mitogenic lectin phytohemagglutinine (PHA) or with PHA plus the inhibitors indicated. Subsequently, there was carried out a determination of the number of metabolically active cells by using the commercially available WST-1 Cell-Proliferation Assay (Takara Inc.) in accordance with the proposals of the manufacturer.
FIG. 10: The mononuclear cells (MNC) were incubated for a time of 72 hours in the presence of the above-indicated inhibitors singly or in combination. Subsequently, there was carried out a determination of the number of metabolically active cells by using the commercially available WST-1 Cell-Proliferation Assay (Takara Inc.) in accordance with the proposals of the manufacturer.

Experiment [7] deals with pokeweed-mitogene stimulated human MNC of the peripheral blood. As to the kind of experiment: DNA synthesis of pokeweed-mitogene stimulated human MNC (3[H]-thymidine incorporation). As to conditions: simultaneous administration of DP IV inhibitor I49 and APN inhibitor bestatine; PWM 2 μg/ml; 72 h; Example 11, FIG. 11. Here is the method: The MNC were incubated for 72 hours in the presence of pokeweed-mitogene and of said inhibitors, and the DNA synthesis was determined subsequently by a measurement of the ^3[H]-thymidine-incorporation, is described by Reinhold et al. (Reinhold D et al.: Inhibitors of dipeptidyl peptidase IV induce secretion of transforming growth factor β1 in PWM-stimulated PBMNC and T cells. Immunology 1997; 91; 354-360).
FIG. 11: Synergistic and dose-dependent effect of inhibitors of DP IV (I49) and of aminopeptidase N (bestatine) on the DNA synthesis of human PWM-stimulated MNC. Human peripheric MNC were incubated for three days with PWM (2 μg/ml) and the above-indicated concentration of inhibitors. Subsequently, ^3[H]-methyl thymidine was added to the culture medium, and the amount of ^3[H]-thymidine incorporated into the DNA was measured after further 6 hours.

Experiment [8] has as its system IL-4 production by pokeweed-mitogene stimulated human mononuclear cells (MNC). Briefly: IL-4 production by pokeweed-mitogene stimulated human MNC (IL-4 ELISA). The note with it: simultaneous administration of DP IV inhibitor I49 and APN inhibitor bestatine; PWM 2 μg/ml; 48 h; culture supernatants; Example 12, FIG. 12. Here is the method: The MNC were incubated for 48 hours in the presence of pokeweed-mitogene and of said inhibitors, and the concentration of IL-4 was subsequently determined in the respective culture supernatants by means of commercially available IL-4 analysis kids (ELISA) as described by Reinhold et al. (Reinhold D et al.: Inhibitors of dipeptidyl peptidase IV induce secretion of transforming growth factor β1 in PWM-stimulated PBMNC and T cells. Immunology 1997; 91; 354-360).
FIG. 12: Synergistic and dose-dependent effect of inhibitors of DP IV (I49) and of aminopeptidase N (bestatine) on the IL-4-production by human, PWM-stimulated MNC. Human peripheric MNC were incubated for 48 hours with PWM (2 μg/ml) and with the above-indicated concentrations of the inhibitors. Subsequently, the concentration of IL-4 in the respective culture supernatants were measured by means of IL-4-ELISA.
For orientation: ELISA stands for enzyme-linked immunosorbent assay.

Where [9] appears, read: simultaneous administration of DP IV inhibitor I49 and prolyl oligopeptidase inhibitor Boc-Ala thiazolidide, Example 4, FIG. 4.
Where [10] appears, read: simultaneous administration of DP IV inhibitor I49 and prolyl oligopeptidase inhibitor Boc-Ala thiazolidide, Example 3, FIG. 3.
[11] abbreviates: simultaneous administration of DP IV inhibitor I49 and APN inhibitor actinonine, Example 2, FIG. 2.
Setting [12] is: simultaneous administration of DP IV inhibitor I49 and APN inhibitor actinonine, Example 1, FIG. 1.
Setting [13] is: single and simultaneous administration of I49 and actinonine, PHA, Example 7, FIG. 7.
[14] abbreviates: simultaneous administration of DP IV inhibitor I49 and ACE inhibitor captopril, Example 6, FIG. 6.
[15] abbreviates: simultaneous administration of DP IV inhibitor I49 and ACE inhibitor captopril, Example 5, FIG. 5.
Where [16] appears, read: single and simultaneous administration of I49 and X-Pro-aminopeptidase (APP) inhibitor apstatine, Example 10, FIG. 10.

With Probestine, the “inhibition of proliferation (number of metabolically active cells)” value (“inhibition of proliferation” below) in experiment [1] and in experiment [2] was “Inhibition of the Proliferation” in each case.
With `CC(NC(=O)OC(C)(C)C)C(=O)N1CCSC1` (stereo not shown) [Boc-Ala thiazolidide], the “inhibition of DNA synthesis” value is on record as “inhibited, in an increased manner” in experiment [3] (setting [9]) and “inhibited, in a more than additive to superadditive manner” in experiment [4] (setting [10]).
Consider `CCCCC[C@H](CC(=O)NO)C(=O)N[C@H](C(=O)N1CCC[C@H]1CO)C(C)C` [Actinonine], for which the “inhibition of DNA synthesis” value is on record as “inhibited, in a more than additive to superadditive manner” in experiment [3] (setting [11]); “inhibited, in a more than additive and, at lower concentrations, also in a superadditive manner” in experiment [5]; “inhibited, in a more than additive to superadditive manner” in experiment [4] (setting [12]). For the same compound, the “inhibition of proliferation” value in experiment [1], in experiment [6] (setting [13]) and in experiment [2] was “Inhibition of the Proliferation” throughout.
As to `CC(C)C[C@H](NC(=O)[C@@H](O)[C@H](N)Cc1ccccc1)C(=O)O` [Bestatine], in experiment [7], the “inhibition of DNA synthesis” value is reported as “inhibited, in a more than additive manner”. Further, in experiment [8], the “inhibition of IL-4 production” value is reported as “inhibited, in a more than additive to superadditive manner”.
In the case of `C[C@H](CS)C(=O)N1CCC[C@H]1C(=O)O` [Captopril], the “inhibition of DNA synthesis” value in experiment [3] (setting [14]) is listed as “inhibited, in a more than additive to superadditive manner”; in experiment [4] (setting [15]), “inhibited, in a more than additive to superadditive manner”.
As to `C[C@H](NC(=O)[C@@H]1CCCN1C(=O)[C@@H]1CCCN1C(=O)[C@@H](O)[C@H](N)Cc1ccccc1)C(N)=O` [Apstatine], the “inhibition of proliferation” value in experiment [6] (setting [16]) is “Inhibition of the Proliferation”.
For the compound `N[C@@H](CCCCNC(=O)OCc1ccc([N+](=O)[O-])cc1)C(=O)N1CCSC1` [I49, Lys[Z(NO2)]-thiazolidide], the “inhibition of DNA synthesis” value in experiment [3] (setting [14]) is listed as “inhibited, in a more than additive to superadditive manner”; in experiment [3] (setting [11]) it was “inhibited, in a more than additive to superadditive manner”; in experiment [3] (setting [9]), “inhibited, in an increased manner”; in experiment [5], “inhibited, in a more than additive and, at lower concentrations, also in a superadditive manner”; in experiment [4] (setting [15]) it was “inhibited, in a more than additive to superadditive manner”; in experiment [4] (setting [12]) it was “inhibited, in a more than additive to superadditive manner”. The “inhibition of DNA synthesis” value is “inhibited, in a more than additive to superadditive manner” in experiment [4] (setting [10]) and “inhibited, in a more than additive manner” in experiment [7]. Moreover, the “inhibition of proliferation” value in experiment [1], in experiment [6] (setting [16]), in experiment [6] (setting [13]) and in experiment [2] was “Inhibition of the Proliferation” each time. Also, the “inhibition of IL-4 production” value in experiment [8] was “inhibited, in a more than additive to superadditive manner”.
